Experimental data reported in ChEMBL document CHEMBL4765411, “Discovery of 2-(2-aminobenzo[d]thiazol-6-yl) benzo[d]oxazol-5-amine derivatives that regulated HPV relevant cellular pathway and prevented cervical cancer from abnormal proliferation” (Eur J Med Chem, 2020).

How the values were obtained:
HeLa [1] = assay: Antiproliferative activity against human HeLa cells assessed as growth inhibition at 20 uM viability after 72 hrs by SRB assay relative to control; type: functional; settings: read-out: GI
HeLa [2] = assay: Antiproliferative activity against human HeLa cells assessed as reduction in cell viability after 72 hrs by SRB assay; type: functional, cell-based
HeLa [3] = assay: Antiproliferative activity against human HeLa cells assessed as growth inhibition at 1 uM viability after 72 hrs by SRB assay relative to control; type: functional; settings: read-out: GI

Compound	inhibition of growth at 20 µM (HeLa [1]) [%]	IC50 (HeLa [2]) [µM]	inhibition of growth at 1 µM (HeLa [3]) [%]
Nc1ccc(-c2nc3ccccc3[nH]2)c(N)c1	0.2		
Nc1ccc2nc(-c3ccccc3)oc2c1	-0.7		
C[S+]([O-])c1ccc2nc(N)sc2c1 (stereo unspecified)	9.1		
Oc1ccccc1-c1nc2ccccc2s1	8.1		
O=C(Nc1nc2ccccc2s1)c1c(Cl)cccc1Cl	3.5		
Nc1ccc2nn(-c3ccccc3)nc2c1	53		
Nc1ccc2oc(-c3ccccc3)nc2c1	-2.3		
c1ccc2oc(-c3ccc4ncsc4c3)nc2c1	49.2	6	17.6
Nc1nc2ccc([N+](=O)[O-])cc2s1	6		
Nc1ccc(Br)cc1-c1nc2ccccc2s1	0.8		
FC(F)(F)c1ccc(-c2nc3ccccc3s2)nn1	9.7		
CN(C)c1ccc(-c2nc3cc(N)ccc3o2)cc1	8.9		
Nc1nc2cccc(Cl)c2s1	5.3		
Sc1nc2ccccc2s1 [2-MERCAPTOBENZOTHIAZOLE]	7.9		
Nc1nc2ccc(-c3nc4ccccc4o3)cc2s1	67.2	0.82	59.6
COc1ccc2sc(N)nc2c1	12.2		

Compound	inhibition of growth at 20 µM (HeLa [1]) [%]	IC50 (HeLa [2]) [µM]	inhibition of growth at 1 µM (HeLa [3]) [%]
Nc1nc2ccccc2[nH]1	1.1		
O=[N+]([O-])c1ccc(-c2nc3cc([N+](=O)[O-])ccc3o2)cc1	3.8		
CCOc1ccc(-c2nc3cc(N)ccc3o2)cc1	5.8		
Nc1nc2ccc(-c3nc4ccccc4s3)cc2s1	47.8		
COc1ccc(-c2nc3ccccc3s2)cc1	0.1		
CCNC(=O)Nc1ccc2oc(-c3ccc4nc(N)sc4c3)nc2c1	6.8		0.7
Nc1cccc(-c2nc3ccccc3[nH]2)c1	0		
COc1ccc(-c2nc3cc(N)ccc3o2)cc1OC	2.3		
Nc1ccc(-c2nc3ccccc3o2)cc1	19.3		
Cc1nc(-c2nc3ccccc3s2)n[nH]1	6.6		
Nc1ccc2sc(N)nc2c1	9.6		
COc1ccc2nc(N)sc2c1	-3.4		
Nc1ccc(O)c(-n2nc3ccc(N)cc3n2)c1	7.1		
Cc1nc2cc(N)ccc2s1	6.1		
c1ccc(-c2nc3ccccc3[nH]2)nc1	2.5		
